Laboratory results as given in US20240358693A1, “METHODS OF TREATING PAIN” (Aisa Pharma, Inc., priority 2023, published 2024).

Tested on: participants with SSc-RP
Assay: Average duration of weekly RP attacks (minutes)
Type: in vivo, human
Excerpt: The absolute change in average duration of weekly RP attacks from baseline to the end of each dosing period was and will be a secondary outcome variable. The sponsor-developed participant-informed diary was and will be used to record data. Average duration of weekly RP attacks is defined as the total duration of RP attacks divided by total number of RP attacks within the last 7 days of each dosing period. Total duration of RP attacks during the last 7 days of screening period divided by the total number of RP attacks will be used as baseline for the analysis of all periods. The variable will be calculated similar to frequency data as before.

[1] = Pooled Cilnidipine 20 mg and Cilnidipine 20 mg + Tadalafil 5 mg, Excluding Outliers, by Baseline RCS, subgroup 2, ITT Population - Part A
[2] = Pooled Cilnidipine 20 mg and Cilnidipine 20 mg + Tadalafil 5 mg, ITT Part A
[3] = Pooled Cilnidipine 20 mg and Cilnidipine 20 mg + Tadalafil 5 mg, by Baseline RCS, subgroup 1, ITT Population - Part A
[4] = Pooled Cilnidipine 20 mg and Cilnidipine 20 mg + Tadalafil 5 mg, by Baseline RCS, subgroup 2, ITT Population - Part A
[5] = Pooled Cilnidipine, n=3, Excluding Outliers, ITT Part A
[6] = Pooled Cilnidipine, n=3, ITT Part A
[7] = Pooled Cilnidipine, Baseline RCS subgroup 1 (unnamed), ITT Part A
[8] = Pooled Cilnidipine, Excluding Outliers, Baseline RCS subgroup 1 (unnamed), ITT Part A
[9] = Pooled Cilnidipine, Excluding Outliers, ITT Population - Part A
[10] = Pooled Cilnidipine, Excluding Outliers, by Baseline RCS, subgroup 1, ITT Population - Part A
[11] = Pooled Cilnidipine, by Baseline RCS, subgroup 1, ITT Population - Part A

## COCCOC(=O)C1=C(C)NC(C)=C(C(=O)OC/C=C/c2ccccc2)C1c1cccc([N+](=O)[O-])c1 (centres unmarked) [Cilnidipine, cilnidipine]
[1]
  Average Duration of Weekly RP Attacks (All Attacks) Change from Baseline, Median: -19.09 min
  Average Duration of Weekly RP Attacks (All Attacks) Percent Change from Baseline, Mean: −23.33%
  Average Duration of Weekly RP Attacks (All Attacks) Percent Change from Baseline, Median: −23.33%
  Average Duration of Weekly RP Attacks (All Attacks), Mean: 62.73 min
  Average Duration of Weekly RP Attacks (All Attacks), Median: 62.73 min
[2]
  Average Duration of Weekly RP Attacks (All Attacks) Change from Baseline, Mean: -4.77 min
  Average Duration of Weekly RP Attacks (All Attacks) Change from Baseline, Median: -2.73 min
  Average Duration of Weekly RP Attacks (All Attacks) Percent Change from Baseline, Mean: −13.86%
  Average Duration of Weekly RP Attacks (All Attacks) Percent Change from Baseline, Median: −2.74%
  Average Duration of Weekly RP Attacks (All Attacks), Mean: 27.61 min
  Average Duration of Weekly RP Attacks (All Attacks), Median: 22.36 min
[3]
  Average Duration of Weekly RP Attacks (All Attacks) Change from Baseline, Mean: 0.00 min
  Average Duration of Weekly RP Attacks (All Attacks) Change from Baseline, Median: 2.16 min
  Average Duration of Weekly RP Attacks (All Attacks) Percent Change from Baseline, Mean: −10.70%
  Average Duration of Weekly RP Attacks (All Attacks) Percent Change from Baseline, Median: 17.86%
  Average Duration of Weekly RP Attacks (All Attacks), Mean: 15.91 min
  Average Duration of Weekly RP Attacks (All Attacks), Median: 14.27 min
[4]
  Average Duration of Weekly RP Attacks (All Attacks) Change from Baseline, Mean: -19.09 min
  Average Duration of Weekly RP Attacks (All Attacks) Change from Baseline, Median: -19.09 min
  Average Duration of Weekly RP Attacks (All Attacks) Percent Change from Baseline, Mean: −23.33%
  Average Duration of Weekly RP Attacks (All Attacks) Percent Change from Baseline, Median: −23.33%
  Average Duration of Weekly RP Attacks (All Attacks), Mean: 62.73 min
  Average Duration of Weekly RP Attacks (All Attacks), Median: 62.73 min
Pooled Cilnidipine (n = 7)
  Duration: 20%
[5]
  Average Duration of Weekly Symptomatic RP Attacks, Change from Baseline, Mean: -7.67 min
  Average Duration of Weekly Symptomatic RP Attacks, Change from Baseline, Median: -10.33 min
  Average Duration of Weekly Symptomatic RP Attacks, Mean: 21.70 min
  Average Duration of Weekly Symptomatic RP Attacks, Median: 30.45 min
  Average Duration of Weekly Symptomatic RP Attacks, Percent Change from Baseline, Mean: −32.23%
  Average Duration of Weekly Symptomatic RP Attacks, Percent Change from Baseline, Median: −34.60%
[6]
  Average Duration of Weekly Symptomatic RP Attacks, Change from Baseline, Mean: -7.67 min
  Average Duration of Weekly Symptomatic RP Attacks, Change from Baseline, Median: -10.33 min
  Average Duration of Weekly Symptomatic RP Attacks, Mean: 21.70 min
  Average Duration of Weekly Symptomatic RP Attacks, Median: 30.45 min
  Average Duration of Weekly Symptomatic RP Attacks, Percent Change from Baseline, Mean: −32.23%
  Average Duration of Weekly Symptomatic RP Attacks, Percent Change from Baseline, Median: −34.60%
[7]
  Average Duration of Weekly Symptomatic RP Attacks, Change from Baseline, Mean: -7.67 min
  Average Duration of Weekly Symptomatic RP Attacks, Change from Baseline, Median: -10.33 min
  Average Duration of Weekly Symptomatic RP Attacks, Mean: 21.70 min
  Average Duration of Weekly Symptomatic RP Attacks, Median: 30.45 min
  Average Duration of Weekly Symptomatic RP Attacks, Percent Change from Baseline, Mean: −32.23%
  Average Duration of Weekly Symptomatic RP Attacks, Percent Change from Baseline, Median: −34.60%
[8]
  Average Duration of Weekly Symptomatic RP Attacks, Change from Baseline, Mean: -7.67 min
  Average Duration of Weekly Symptomatic RP Attacks, Change from Baseline, Median: -10.33 min
  Average Duration of Weekly Symptomatic RP Attacks, Mean: 21.70 min
  Average Duration of Weekly Symptomatic RP Attacks, Median: 30.45 min
  Average Duration of Weekly Symptomatic RP Attacks, Percent Change from Baseline, Mean: −32.23%
  Average Duration of Weekly Symptomatic RP Attacks, Percent Change from Baseline, Median: −34.60%
[9]
  Average Duration of Weekly RP Attacks (All Attacks) Change from Baseline, Mean: -3.55 min
  Average Duration of Weekly RP Attacks (All Attacks) Change from Baseline, Median: -7.63 min
  Average Duration of Weekly RP Attacks (All Attacks) Percent Change from Baseline, Mean: −23.71%
  Average Duration of Weekly RP Attacks (All Attacks) Percent Change from Baseline, Median: −21.20%
  Average Duration of Weekly RP Attacks (All Attacks), Mean: 21.66 min
  Average Duration of Weekly RP Attacks (All Attacks), Median: 30.45 min
[10]
  Average Duration of Weekly RP Attacks (All Attacks) Change from Baseline, Mean: -3.55 min
  Average Duration of Weekly RP Attacks (All Attacks) Change from Baseline, Median: -7.63 min
  Average Duration of Weekly RP Attacks (All Attacks) Percent Change from Baseline, Mean: −23.71%
  Average Duration of Weekly RP Attacks (All Attacks) Percent Change from Baseline, Median: −21.20%
  Average Duration of Weekly RP Attacks (All Attacks), Mean: 21.66 min
  Average Duration of Weekly RP Attacks (All Attacks), Median: 30.45 min
Pooled Cilnidipine, ITT Part A
  Average Duration of Weekly RP Attacks (All Attacks) Change from Baseline, Mean: -3.55 min
  Average Duration of Weekly RP Attacks (All Attacks) Change from Baseline, Median: -7.63 min
  Average Duration of Weekly RP Attacks (All Attacks) Percent Change from Baseline, Mean: −23.71%
  Average Duration of Weekly RP Attacks (All Attacks) Percent Change from Baseline, Median: −21.20%
  Average Duration of Weekly RP Attacks (All Attacks), Mean: 21.66 min
  Average Duration of Weekly RP Attacks (All Attacks), Median: 30.45 min
[11]
  Average Duration of Weekly RP Attacks (All Attacks) Change from Baseline, Mean: -3.55 min
  Average Duration of Weekly RP Attacks (All Attacks) Change from Baseline, Median: -7.63 min
  Average Duration of Weekly RP Attacks (All Attacks) Percent Change from Baseline, Mean: −23.71%
  Average Duration of Weekly RP Attacks (All Attacks) Percent Change from Baseline, Median: −21.20%
  Average Duration of Weekly RP Attacks (All Attacks), Mean: 21.66 min
  Average Duration of Weekly RP Attacks (All Attacks), Median: 30.45 min
Cilnidipine or cilnidipine plus tadalafil (n=7), tadalafil monotherapy (n=2)
  duration of Raynaud attacks, direction of change: decrease greater than that seen in placebo treated patients
Cilnidipine or cilnidipine plus tadalafil treated patients
  patients in whom reduction in duration exceeded a 25% threshold: 4 of 7
